Assay results: the NIST ThermoML archive (doi:10.1021/acs.jced.6b00803)
± gives the expanded uncertainty stated by the source.

Conditions: 298.15 K; 101.33 kPa; Liquid; Vibrating tube method
Compound `CC(=O)CCc1ccccc1` [4-phenyl-2-butanone] has a mass density of 984.742 ± 4 kg/m3.
In the case of `CC(=O)OCc1ccccc1` [benzyl ethanoate], the mass density is reported as 1051.1 ± 4.2 kg/m3.
For `CCCCCCCCCCCC` [dodecane], the mass density was 745.508 ± 3 kg/m3.
In the case of `CCCCCCCCCCCCCCCC` [hexadecane], the mass density is reported as 770.221 ± 3.1 kg/m3.
In the case of `CCCCCCCCCCCCCC` [tetradecane], the mass density is reported as 759.275 ± 3 kg/m3.
